Laboratory results reported in ChEMBL document CHEMBL1201862, “PubChem BioAssay data set” (2004).
Values belong to the compound of their own block, whether it stands above or below them. Active and inactive are the calls of the source.

What was measured:
[1] = molecular target: Neuropeptide Y receptor type 1 (Homo sapiens, UniProt P25929); assay: NPY-Y1 receptor antagonist potency, dose response, cell-based (AID 1277); assay type: functional
[2] = molecular target: Neuropeptide Y receptor type 2 (Homo sapiens, UniProt P49146); assay: NPY-Y2 antagonist potency, selectivity check, dose response, counter-screen for NPY-Y1 antagonist project, cell-based (AID 1278); assay type: functional
Estrogen receptor = molecular target: T1, Estrogen receptor (Homo sapiens, UniProt P03372); assay: potentiators of ERα–SRC-1 coactivator binding, dose response, biochemical, TR-FRET, ERα LBD (AID 737)
T1 sequence (P03372 whole entry): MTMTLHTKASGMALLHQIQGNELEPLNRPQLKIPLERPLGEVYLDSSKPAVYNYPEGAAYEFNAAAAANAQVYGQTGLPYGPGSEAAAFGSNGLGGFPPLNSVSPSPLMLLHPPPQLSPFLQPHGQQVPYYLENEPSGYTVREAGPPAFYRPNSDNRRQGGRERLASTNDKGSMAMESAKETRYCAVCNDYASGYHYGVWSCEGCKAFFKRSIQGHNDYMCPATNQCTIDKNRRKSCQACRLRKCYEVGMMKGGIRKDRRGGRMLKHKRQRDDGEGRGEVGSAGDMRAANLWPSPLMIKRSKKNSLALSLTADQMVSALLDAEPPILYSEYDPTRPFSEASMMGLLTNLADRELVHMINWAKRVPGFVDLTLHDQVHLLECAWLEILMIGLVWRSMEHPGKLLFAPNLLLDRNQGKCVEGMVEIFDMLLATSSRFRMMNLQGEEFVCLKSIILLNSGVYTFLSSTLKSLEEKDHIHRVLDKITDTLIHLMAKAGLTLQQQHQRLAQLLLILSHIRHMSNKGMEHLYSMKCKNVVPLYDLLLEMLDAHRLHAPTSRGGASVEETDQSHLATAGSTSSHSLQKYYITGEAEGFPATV

[3] = HepG2 cell cytotoxicity, dose response, cytotoxicity control, plate reader, cherry-pick, antagonist series (AID 743416); assay type: functional, cell-based
[4] = LGR2 antagonists, dose response, cell-based, HEK293, CRE-luciferase reporter, cherry pick, set 2 (AID 743343); assay type: functional;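 also: transfected cells were stimulated with diluted bursicon conditioned medium after compound addition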
[5] = molecular target: T2, Oxysterols receptor LXR-beta (Homo sapiens, UniProt P55055); assay type: functional, cell-based;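 also: Cell-based luminescence dose-response assay of agonist activity at LXR, run as a confirmatory counterscreen to a daf-12 agonist screen; HEK293 cells with Gal4-LXR fusion and GAL4-driven luciferase reporter; agonist potency from rising luciferase signal of a Gal4-LXR reporter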
T2 sequence (P55055 whole entry): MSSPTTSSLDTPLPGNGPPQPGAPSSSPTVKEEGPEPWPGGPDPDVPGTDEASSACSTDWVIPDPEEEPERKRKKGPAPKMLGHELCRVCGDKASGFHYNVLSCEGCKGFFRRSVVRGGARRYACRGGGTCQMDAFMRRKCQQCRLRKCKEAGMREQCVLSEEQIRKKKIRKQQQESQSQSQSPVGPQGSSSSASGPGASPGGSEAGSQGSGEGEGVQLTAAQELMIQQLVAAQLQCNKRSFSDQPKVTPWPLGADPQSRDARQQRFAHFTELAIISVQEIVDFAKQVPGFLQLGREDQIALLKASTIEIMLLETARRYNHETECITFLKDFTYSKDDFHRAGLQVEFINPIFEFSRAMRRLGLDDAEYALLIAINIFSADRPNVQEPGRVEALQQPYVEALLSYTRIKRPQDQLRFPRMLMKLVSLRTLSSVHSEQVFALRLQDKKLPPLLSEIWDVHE

[6] = Luminescence-based counterscreen assay for KLF5 inhibitors: dose response cell-based high throughput screening assay to identify cytotoxic compounds using the IEC-6 intestinal epithelial cell line. [Related pubchem assays: 1700 (Primary screen.), 1834 (Confirmation screen.), 1858 (Summary AID.), 1905 (Counterscreen.)]; assay type: functional
[7] = A549 cell cytotoxicity, dose response, cytotoxicity control, plate reader, cherry-pick, antagonist series (AID 743412); assay type: functional, cell-based
[8] = MC4R antagonists, dose response, counter-screen for LGR2 antagonist project, cell-based, plate reader, cherry pick (AID 743444); assay type: functional;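 also: transfected HEK 293 cells stimulated with alpha-MSH peptide; potency of inhibitors of the alpha-MSH evoked signal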

Chain of Neuropeptide Y receptor type 1 (P25929 whole entry): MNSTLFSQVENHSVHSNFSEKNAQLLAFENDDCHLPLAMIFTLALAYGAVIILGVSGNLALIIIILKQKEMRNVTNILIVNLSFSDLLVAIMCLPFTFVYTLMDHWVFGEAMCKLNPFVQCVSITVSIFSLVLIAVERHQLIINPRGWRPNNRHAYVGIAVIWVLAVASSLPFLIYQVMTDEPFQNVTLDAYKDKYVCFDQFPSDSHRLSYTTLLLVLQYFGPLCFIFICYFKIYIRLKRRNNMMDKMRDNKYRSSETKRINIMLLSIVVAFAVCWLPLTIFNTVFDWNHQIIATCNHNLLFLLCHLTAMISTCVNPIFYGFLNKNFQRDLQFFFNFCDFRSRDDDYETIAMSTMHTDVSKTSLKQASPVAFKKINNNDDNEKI
Chain of Neuropeptide Y receptor type 2 (P49146 whole entry, the tested form may be a part): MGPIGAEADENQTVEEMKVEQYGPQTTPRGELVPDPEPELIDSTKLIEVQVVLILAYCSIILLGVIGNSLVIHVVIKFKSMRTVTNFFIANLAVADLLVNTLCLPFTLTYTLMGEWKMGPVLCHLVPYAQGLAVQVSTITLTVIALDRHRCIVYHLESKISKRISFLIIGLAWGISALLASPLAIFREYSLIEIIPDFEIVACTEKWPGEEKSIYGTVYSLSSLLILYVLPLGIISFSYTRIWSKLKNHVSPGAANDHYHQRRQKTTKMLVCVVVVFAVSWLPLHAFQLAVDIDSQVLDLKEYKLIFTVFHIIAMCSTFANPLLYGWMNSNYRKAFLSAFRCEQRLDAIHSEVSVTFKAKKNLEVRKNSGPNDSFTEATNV

- IC50 [1]: 30.4 µM (not active)
- IC50 [2]: > 35 µM (not active)
Compound: COc1ccccc1N(CC(=O)NC1CCCC1)C(=O)c1oc(C(C)(C)C)cc1C

- EC50 (Estrogen receptor): 13.5 µM (active)
Compound: Cc1cc2oc(=O)cc(COC(=O)c3[nH]nc4ccccc34)c2cc1C

Compound: O=C(c1cc(-c2ccccc2Cl)on1)N1CCCC1
- EC50 (cells): > 67.5 µM (inactive)
- AC50 [3]: > 52 µM (inactive)
- AC50 [4]: 7.48 µM (active)
- EC50 [5]: > 67.5 µM (inactive)
- IC50 [6]: > 39.8 µM (not active)
- AC50 [7]: > 52 µM (inactive)
- AC50 [8]: 12.1 µM (active)
